We go through eight compounds from patent publication US5001158A, “Nitrosoureas compounds preparation thereof and utilization thereof in anticancerous” (Centre National de la Recherche Scientifique, priority 1990, dated 1991).

Where two headings read alike, the source gives them in different places.

Data set [1] deals with Leukemia L 1210. The arrangement: key: N.S.: Not significant; .infin.: 50% more of the treated animals are cure. The settings on record: days 1, 5 and 9, cited from earlier work.
Data set [2] deals with Lewis pulmonary carcinoma. The arrangement: key: N.S.: Not significant; .infin.: 50% more of the treated animals are cure. The settings on record: days 1, 5 and 9, cited from earlier work.
The test system of data set [3] is Melanocarcinoma B 16. The arrangement: key: N.S.: Not significant; .infin.: 50% more of the treated animals are cure. The settings on record: days 1, 5 and 9, cited from earlier work.
Data set [4] concerns Glioma 26. The arrangement: key: N.S.: Not significant; .infin.: 50% more of the treated animals are cure. The settings on record: days 1, 5 and 9, cited from earlier work.
For data set [5], the system named is Mammary adenocarcinoma TM2. The arrangement: key: N.S.: Not significant; .infin.: 50% more of the treated animals are cure. The settings on record: days 1, 5 and 9, cited from earlier work.
The test system of data set [6] is Carcinoma of the colon (colon 26). The arrangement: key: N.S.: Not significant; .infin.: 50% more of the treated animals are cure. The settings on record: days 1, 5 and 9, cited from earlier work.
Data set [7] relates to Ovarian M 555. The arrangement: key: N.S.: Not significant; .infin.: 50% more of the treated animals are cure. The settings on record: days 1, 5 and 9, cited from earlier work.
The test system of data set [8] is Fibrosarcoma I.C.I.G. C1. The arrangement: key: N.S.: Not significant; .infin.: 50% more of the treated animals are cure. The settings on record: days 1, 5 and 9, cited from earlier work.
Data set [9] deals with leukemia strain L1210. Description: Antitumoral activity on leukemia L1210 i.p. in mice, unoxidized compounds (ICIG). The format is in vivo, mice (male B6 D2 F1 /OLA). The settings on record: for survival rate after 60 days: at different doses; for I indices (in words): i.p., leukemia L1210. As to the method:
The oncostatic activity of these nitrosated derivatives was determined at the I.C.I.G. in VILLEJUIF (Department of Prof. MATHE) following a described experimental protocol: M. HAYAT et al , Cancer Chemother. Pharmacol., 1979, 3, 217-221; R. MARAL et al., Eur. J. Med. Chem., submitted for publication.
(§1) Male B6 D2 F1 /OLA mice are inoculated intraperitoneally with 10^5 cells of the leukemia strain L1210 on day 0 and divided into groups. The first is the control group and the others are treated with the drugs at different concentrations on days 1, 5 and 9. The compounds are injected as a suspension in olive oil. The mortality of the animals is observed and the autopsy indicates whether it is due to leukemia or to the toxic action of the products.
(§2) The 50% lethal dose (LD50 acute) is determined by taking into account the mortality which has occurred before the 8th day among the animals treated on day D:1. The survival median of the treated animals (mT) and the control animals (mC) was established and Wilcoxon's non-parametric statistical test was applied. The results are considered positive if the index I [formula] is greater than 125 and the test Is significant at p≤0.05.

The nature of data set [10]: 50% lethal dose (LD50 acute) in mice. The format is in vivo, mice (male B6 D2 F1 /OLA). The settings on record: mouse, in vivo, ip, mortality before the 8th day. As to the method:
as §1, §2

For data set [11], the system named is mice. Description: 50% lethal dose (LD50 acute) in mice. The data set is classed as in vivo, mice (male B6 D2 F1 /OLA). The settings on record: i.p. As to the method:
as §1, §2

`CC(=O)O[C@@H]1[C@H](OC(C)=O)COC(NC(=O)N(CCCl)N=O)[C@@H]1OC(C)=O` (stereo partly drawn) [R.P.C.N.U., 1-(2-chloroethyl)-3-[(2'-3'-4° trioacetyl)alphabeta D-ribopyrannosyl]-1-nitrosourea]: the “Increase in the survival time (I.L.S.: T/C × 100)” value (“Increase in the survival time” for short) in [1] (15 mg/kg i.p.) is on record as “N.S”; in [2] (15 mg/kg i.p.), “N.S”; in [3] (15 mg/kg i.p.), 151; in [4] (15 mg/kg i.p.) it was 127; in data set [5] (15 mg/kg i.p.), 134; in data set [6] (15 mg/kg i.p.), “N.S”. In addition, in data set [7] (15 mg/kg i.p.), the “Increase in the survival time” value was “.infin. (50% more of the treated animals are cure)”.

Regarding `CC1(C)O[C@@H]2[C@@H](COC(=O)c3ccc([N+](=O)[O-])cc3)OC(NC(=O)N(CCCl)N=O)[C@@H]2O1` (stereo partly drawn) [R.F.C.N.U., 1-(2-chloroethyl)-3-[1'-(5'-pnitrobenzoyl 2', 3'-isopropylidene)alphabeta D-ribofuranosyl]-1-nitrosourea], the “Increase in the survival time” value in data set [1] (20 mg/kg i.p.) is given as 167; in data set [2] (20 mg/kg i.p.), “N.S”; in [3] (20 mg/kg i.p.), 144; in [4] (20 mg/kg i.p.), “N.S”; in data set [5] (20 mg/kg i.p.), “N.S”; in data set [8] (20 mg/kg i.p.), “.infin. (50% more of the treated animals are cure)”. For the same compound, the “Increase in the survival time” value in [6] (20 mg/kg i.p.) and in [7] (20 mg/kg i.p.) was “N.S” in each case.

What is called LD50 is the dose at which mortality reaches 50%. As for `CSCCNC(=O)N(CCCl)N=O` [(3), S-methyl-N-[N-(2-chloroethyl)-N-nitrosocarbamoyl] cysteamine], the “index I (survival median treated vs control)” value (“index I” for short) in data set [9] (5 mg/kg i.p., days 1,5,9) is recorded as “.infin. (50% or more of the animals survive to day +60)”. For the same compound, in [9] (12.5 mg/kg i.p., days 1,5,9), the “% of animals surviving to 60 days” value was 100% and the “index I” value was “.infin. (50% or more of the animals survive to day +60)”. Further, the “% of animals surviving to 60 days” value in data set [9] (15 mg/kg i.p., days 1,5,9) worked out at 87%. Further, in [9], the “survival rate after 60 days” value amounted to 100% and the “I indices (in words)” value was “at infinity”. The compound further showed an LD50 in [10] of 19 to 25 mg/kg.

In the case of `O=NN(CCCl)C(=O)NCCO` [H.E.C.N.U., 1-(2-hydroxyethyl)-3-(2-chloroethyl) 3-nitrosourea], the “Increase in the survival time” value in data set [1] (10 mg/kg i.p.) is listed as “.infin. (50% more of the treated animals are cure)”; in data set [2] (10 mg/kg i.p.), “.infin. (50% more of the treated animals are cure)”; in data set [3] (10 mg/kg i.p.) it was 198; in [4] (10 mg/kg i.p.), 182; in data set [5] (10 mg/kg i.p.) it was 165; in [8] (10 mg/kg i.p.), “N.S”. The “Increase in the survival time” value is given as “.infin. (50% more of the treated animals are cure)” in data set [6] (10 mg/kg i.p.) and 210 in data set [7] (10 mg/kg i.p.).

Turning to `O=NN(CCCl)C(=O)NCCS` [(1), N-[N-(2-Chloroethyl)-N-nitrosocarbamoyl]cysteamine], the “% of animals surviving to 60 days” value in data set [9] (5 mg/kg i.p., days 1,5,9) is 100%; in data set [9] (10 mg/kg i.p., days 1,5,9), 100%; in data set [9] (12.5 mg/kg i.p., days 1,5,9), 100%; in [9] (15 mg/kg i.p., day +1) it was 100%. The “index I” value in [9] (5 mg/kg i.p., days 1,5,9) is “.infin. (50% or more of the animals survive to day +60)”; in data set [9] (10 mg/kg i.p., days 1,5,9), “.infin. (50% or more of the animals survive to day +60)”; in data set [9] (12.5 mg/kg i.p., days 1,5,9), “.infin. (50% or more of the animals survive to day +60)”; in data set [9] (15 mg/kg i.p., day +1), “.infin. (50% or more of the animals survive to day +60)”. Moreover, the “survival rate after 60 days” value in data set [9] is 100%. Moreover, in [9], the “I indices (in words)” value was “at infinity”. The compound further displayed an LD50 in data set [10] of 19 to 25 mg/kg.

Compound `O=NN(CCCl)C(=O)NCCSC(c1ccccc1)(c1ccccc1)c1ccccc1` [(9), S-Trityl-N-[N-(2-chloroethyl)-N-nitrosocarbamoyl]cysteamine] displayed an LD50 in data set [10] above 625 mg/kg. The “toxicity (in words)” value in data set [11] is reported as “not toxic”.

For `O=NN(CCCl)C(=O)N[C@H]1C(O)O[C@H](CO)[C@@H](O)[C@@H]1O` (stereo partly drawn) [CHLOROZOTOCIN, chlorozotocin], the “Increase in the survival time” value in data set [1] (15 mg/kg i.p.) is recorded as “N.S”; in data set [2] (15 mg/kg i.p.) it was “N.S”; in data set [3] (15 mg/kg i.p.), “N.S”; in data set [4] (15 mg/kg i.p.) it was “N.S”; in data set [5] (15 mg/kg i.p.), “N.S”; in data set [8] (15 mg/kg i.p.), “.infin. (50% more of the treated animals are cure)”. Further, the “Increase in the survival time” value in [6] (15 mg/kg i.p.) and in data set [7] (15 mg/kg i.p.) was “.infin. (50% more of the treated animals are cure)” each time.

With `CC(=O)SCCNC(=O)N(CCCl)N=O` [(5), S-acetyl-N-[N-(2-chloroethyl)-N-nitrosocarbamoyl] cysteamine], the “% of animals surviving to 60 days” value is 14% in data set [9] (10 mg/kg i.p., days 1,5,9); 100% in [9] (12.5 mg/kg i.p., days 1,5,9); 80% in [9] (15 mg/kg i.p., days 1,5,9); 25% in [9] (20 mg/kg i.p., days 1,5,9). The “index I” value in [9] (10 mg/kg i.p., days 1,5,9) is listed as “.infin. (50% or more of the animals survive to day +60)”; in data set [9] (12.5 mg/kg i.p., days 1,5,9), “.infin. (50% or more of the animals survive to day +60)”. Further, the “survival rate after 60 days” value in [9] amounted to 100%. In addition, the “I indices (in words)” value in data set [9] was “at infinity”. Besides, the LD50 in [10] was in the range of 19 to 25 mg/kg.
